Legend:
[1] = target: Nanoluciferase-BRD9 fusion protein (Homo sapiens (Human), UniProt Q9H8M2); test: SYO1 BRD9 NanoLuc degradation assay; format: cell-based; conditions: Table 5A, SYO-1 cells expressing 3×FLAG-NLuc-BRD9, 6 hours; for DC50: read-out: SYO1 BRD9-NanoLuc degradation IC50
In short: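 Degradation was read as loss of nanoluciferase signal (Nano-Glo) after 6 h compound exposure in a stable SYO-1 line carrying 3×FLAG-NLuc-BRD9 (8000 cells/well). Normalised between DMSO (high) and a 1 μM known BRD9 degrader (low).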

BRD9 bromodomain = BRD9 bromodomain (Homo sapiens (Human), UniProt Q9H8M2); test: BRD9 bromodomain TR-FRET competition binding assay; conditions: Table 4; competition with biotinylated ligand, 3 nM Flag-BRD9, 90 minutes
In short: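 TEV-cleaved Flag-BRD9 (P133-K239, 3 nM) competed against 3.75 nM biotinylated ligand, with 7.5 nM APC-streptavidin and 0.2 nM Eu-W1024 anti-FLAG, in HEPES pH 7.4, NaCl, TCEP, Tween-20, BSA. Compounds were serially diluted 3-fold; after 90 min at room temperature the 665/615 nm emission ratio was read.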

Sequence of BRD9 bromodomain (Q9H8M2 133-239): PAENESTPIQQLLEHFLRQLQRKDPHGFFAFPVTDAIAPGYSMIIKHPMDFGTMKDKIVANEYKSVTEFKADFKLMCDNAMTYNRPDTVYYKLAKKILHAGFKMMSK
Sequence of Nanoluciferase-BRD9 fusion protein (Q9H8M2 whole entry, the tested form may be a part): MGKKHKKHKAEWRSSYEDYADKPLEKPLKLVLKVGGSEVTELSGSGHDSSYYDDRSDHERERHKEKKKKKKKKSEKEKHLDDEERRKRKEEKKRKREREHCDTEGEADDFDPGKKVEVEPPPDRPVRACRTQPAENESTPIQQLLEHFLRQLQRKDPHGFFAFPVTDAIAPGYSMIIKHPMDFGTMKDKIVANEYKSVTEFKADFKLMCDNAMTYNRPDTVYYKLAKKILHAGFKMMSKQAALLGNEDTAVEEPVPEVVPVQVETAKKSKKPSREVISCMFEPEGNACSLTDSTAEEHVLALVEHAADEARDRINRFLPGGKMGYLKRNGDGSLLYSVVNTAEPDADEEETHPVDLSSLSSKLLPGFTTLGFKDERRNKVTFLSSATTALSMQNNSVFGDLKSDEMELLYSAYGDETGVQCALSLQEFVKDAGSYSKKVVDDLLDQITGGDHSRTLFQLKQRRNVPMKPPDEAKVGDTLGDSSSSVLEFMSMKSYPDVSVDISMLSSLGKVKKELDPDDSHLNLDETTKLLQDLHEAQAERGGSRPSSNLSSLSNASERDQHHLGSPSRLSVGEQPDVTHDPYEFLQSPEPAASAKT

| SMILES | DC50 [1] [nM] | IC50 (BRD9 bromodomain) [nM] | IC50 [1] [nM] |
| --- | --- | --- | --- |
| COc1cc(-c2cn(C)c(=O)c3cnccc23)cc(OC)c1CN1CC2(CC(NC(=O)CCOCCOc3cccc4c3C(=O)N(C3CCC(=O)NC3=O)C4=O)C2)C1 (stereo not shown) [Compound D93] | 10 to 100 | < 10 | – |
| COc1cc(-c2cn(C)c(=O)c3cnccc23)cc(OC)c1CN1CCC12CCN(C(=O)CCOCCOc1cccc3c1C(=O)N(C1CCC(=O)NC1=O)C3=O)C2 (stereo not shown) [Compound D95] | – | 10 to 100 | 100 to 1000 |
| COc1cc(-c2cn(C)c(=O)c3cnccc23)cc(OC)c1CN1CCC(C2CCN(C(=O)CCOCCOc3cccc4c3C(=O)N(C3CCC(=O)NC3=O)C4=O)C2)CC1 (stereo not shown) [Compound D96] | 10 to 100 | < 10 | – |
| COc1cc(-c2cn(C)c(=O)c3cnccc23)cc(OC)c1CN1CCC12CN(C(=O)CCOCCOc1ccc3c(c1)C(=O)N(C1CCC(=O)NC1=O)C3=O)C2 (stereo not shown) [Compound D98] | – | 100 to 1000 | 100 to 1000 |
| COc1cc(-c2cn(C)c(=O)c3cnccc23)cc(OC)c1CN1CCC2(C1)CN(C(=O)CCOCCOc1ccc3c(c1)C(=O)N(C1CCC(=O)NC1=O)C3=O)C2 (stereo not shown) [Compound D99] | – | 10 to 100 | 10 to 100 |
| COc1cc(-c2cn(C)c(=O)c3cnccc23)cc(OC)c1CN1CC2CN(C(=O)CCOCCOc3ccc4c(c3)C(=O)N(C3CCC(=O)NC3=O)C4=O)CCC21 (stereo not shown) [Compound D100] | – | < 10 | < 10 |
| COc1cc(-c2cn(C)c(=O)c3cnccc23)cc(OC)c1CN1CC2(CC(NC(=O)CCOCCOc3ccc4c(c3)C(=O)N(C3CCC(=O)NC3=O)C4=O)C2)C1 (stereo not shown) [Compound D101] | 100 to 1000 | < 10 | – |
| COc1cc(-c2cn(C)c(=O)c3cnccc23)cc(OC)c1CN(C)CC1CC2(CCN(C(=O)CCOCCOc3cccc4c3C(=O)N(C3CCC(=O)NC3=O)C4=O)CC2)CO1 (stereo not shown) [Compound D109] | 10 to 100 | < 10 | – |
| COc1cc(-c2cn(C)c(=O)c3cnccc23)cc(OC)c1CN1CCC2(C[C@@H]2NC(=O)CCOCCOc2cccc3c2C(=O)N(C2CCC(=O)NC2=O)C3=O)C1 (stereo partly shown) [Compound D112] | 100 to 1000 | < 10 | – |
| COc1cc(-c2cn(C)c(=O)c3cnccc23)cc(OC)c1CN1CC2C1CCN2C(=O)CCOCCOc1cccc2c1C(=O)N(C1CCC(=O)NC1=O)C2=O (stereo not shown) [Compound D113] | – | < 10 | < 10 |
| COc1cc(-c2cn(C)c(=O)c3cnccc23)cc(OC)c1CN1CCC2(CC1)CC(NC(=O)CCOCCOc1ccc3c(c1)C(=O)N(C1CCC(=O)NC1=O)C3=O)C2 (stereo not shown) [Compound D116] | 10 to 100 | < 10 | – |
| COc1cc(-c2cn(C)c(=O)c3cnccc23)cc(OC)c1CN1CC(CCNC(=O)CCOCCOc2ccc3c(c2)C(=O)N(C2CCC(=O)NC2=O)C3=O)C1 (stereo not shown) [Compound D117] | 100 to 1000 | < 10 | – |
| COc1cc(-c2cn(C)c(=O)c3cnccc23)cc(OC)c1CN1CCC2(CC1)CN(C(=O)CCOCCOc1ccc3c(c1)C(=O)N(C1CCC(=O)NC1=O)C3=O)C2 (stereo not shown) [Compound D119] | 10 to 100 | < 10 | – |
| COc1cc(-c2cn(C)c(=O)c3cnccc23)cc(OC)c1CN1CCC2(CCN(C(=O)CCOCCOc3ccc4c(c3)C(=O)N(C3CCC(=O)NC3=O)C4=O)CC2)C1 (stereo not shown) [Compound D120] | – | 10 to 100 | 10 to 100 |
| COc1cc(-c2cn(C)c(=O)c3cnccc23)cc(OC)c1CN1CC2(CCN(C(=O)CCOCCOc3ccc4c(c3)C(=O)N(C3CCC(=O)NC3=O)C4=O)C2)C1 (stereo not shown) [Compound D122] | – | < 10 | < 10 |
| COc1cc(-c2cn(C)c(=O)c3cnccc23)cc(OC)c1CN1CCC(COC2CCN(C(=O)CCOCCOc3ccc4c(c3)C(=O)N(C3CCC(=O)NC3=O)C4=O)C2)CC1 (stereo not shown) [Compound D124] | – | < 10 | < 10 |
| COc1cc(-c2cn(C)c(=O)c3cnccc23)cc(OC)c1CN1CCC2(C[C@@H]2NC(=O)CCOCCOc2ccc3c(c2)C(=O)N(C2CCC(=O)NC2=O)C3=O)C1 (stereo partly shown) [Compound D125] | 10 to 100 | < 10 | – |
| COc1cc(-c2cn(C)c(=O)c3cnccc23)cc(OC)c1CN1CCC2(C[C@H]2NC(=O)CCOCCOc2ccc3c(c2)C(=O)N(C2CCC(=O)NC2=O)C3=O)C1 (stereo partly shown) [Compound D126] | – | 10 to 100 | 100 to 1000 |
| COc1cc(-c2cn(C)c(=O)c3cnccc23)cc(OC)c1CN1CC2C1CCN2C(=O)CCOCCOc1ccc2c(c1)C(=O)N(C1CCC(=O)NC1=O)C2=O (stereo not shown) [Compound D128] | – | 10 to 100 | < 10 |
| COc1cc(-c2cn(C)c(=O)c3cnccc23)cc(OC)c1CN1CCC(OC2CCN(C(=O)CCOCCOc3ccc4c(c3)C(=O)N(C3CCC(=O)NC3=O)C4=O)C2)CC1 (stereo not shown) [Compound D130] | – | < 10 | < 10 |
| COc1cc(-c2cn(C)c(=O)c3cnccc23)cc(OC)c1CN1CCC(OC2CCN(C(=O)CCOCCOc3ccc4c(c3)C(=O)N(C3CCC(=O)NC3=O)C4=O)CC2)CC1 (stereo not shown) [Compound D131] | – | < 10 | < 10 |
| COc1cc(-c2cn(C)c(=O)c3cnccc23)cc(OC)c1CN1CCCC(OCc2cn(CCCOc3ccc4c(c3)C(=O)N(C3CCC(=O)NC3=O)C4=O)nn2)C1 (stereo not shown) [Compound D151] | 10 to 100 | < 10 | – |
| COc1cc(-c2cn(C)c(=O)c3cnccc23)cc(OC)c1CN(C)CC1CC2(CCN(C(=O)CCOCCOc3cccc4c3C(=O)N(C3CCC(=O)NC3=O)C4=O)CC2)O1 (stereo not shown) [Compound D159] | 10 to 100 | < 10 | – |
| COc1cc(-c2cn(C)c(=O)c3cnccc23)cc(OC)c1CN(C)C1CC2CC1CN2C(=O)CCOCCOc1cccc2c1C(=O)N(C1CCC(=O)NC1=O)C2=O (stereo not shown) [Compound D162] | – | 10 to 100 | 10 to 100 |
| COc1cc(-c2cn(C)c(=O)c3cnccc23)cc(OC)c1CN(C)CC1CC12CCN(C(=O)CCOCCOc1cccc3c1C(=O)N(C1CCC(=O)NC1=O)C3=O)CC2 (stereo not shown) [Compound D163] | 10 to 100 | < 10 | – |

The remaining lines, values ahead:

| DC50 [1] [nM] | IC50 (BRD9 bromodomain) [nM] | IC50 [1] [nM] | SMILES |
| --- | --- | --- | --- |
| 10 to 100 | < 10 | – | COc1cc(-c2cn(C)c(=O)c3cnccc23)cc(OC)c1CN1CCC2(CC1)CN(C(=O)CCOCCOc1cccc3c1C(=O)N(C1CCC(=O)NC1=O)C3=O)C2 (stereo not shown) [Compound D88] |
| – | < 10 | < 10 | COc1cc(-c2cn(C)c(=O)c3cnccc23)cc(OC)c1CN1CCC2(CCN(C(=O)CCOCCOc3cccc4c3C(=O)N(C3CCC(=O)NC3=O)C4=O)CC2)C1 (stereo not shown) [Compound D89] |
| – | 10 to 100 | 10 to 100 | COc1cc(-c2cn(C)c(=O)c3cnccc23)cc(OC)c1CN1CCC2CCN(C(=O)CCOCCOc3cccc4c3C(=O)N(C3CCC(=O)NC3=O)C4=O)CC21 (stereo not shown) [Compound D91] |
| 10 to 100 | < 10 | – | COc1cc(-c2cn(C)c(=O)c3cnccc23)cc(OC)c1CN1CCC(OC2CCN(C(=O)CCOCCOc3cccc4c3C(=O)N(C3CCC(=O)NC3=O)C4=O)CC2)CC1 (stereo not shown) [Compound D97] |
| – | < 10 | < 10 | COc1cc(-c2cn(C)c(=O)c3cnccc23)cc(OC)c1CN1CCC2(CCN(C(=O)CCOCCOc3cccc4c3C(=O)N(C3CCC(=O)NC3=O)C4=O)C2)C1 (stereo not shown) [Compound D108] |
| – | 10 to 100 | 10 to 100 | COc1cc(-c2cn(C)c(=O)c3cnccc23)cc(OC)c1CN(C)C1CCC12CCN(C(=O)CCOCCOc1cccc3c1C(=O)N(C1CCC(=O)NC1=O)C3=O)CC2 (stereo not shown) [Compound D110] |
| 10 to 100 | < 10 | – | COc1cc(-c2cn(C)c(=O)c3cnccc23)cc(OC)c1CN1CCC2(C[C@H]2NC(=O)CCOCCOc2cccc3c2C(=O)N(C2CCC(=O)NC2=O)C3=O)C1 (stereo partly shown) [Compound D111] |
| 10 to 100 | < 10 | – | COc1cc(-c2cn(C)c(=O)c3cnccc23)cc(OC)c1CN1CCC(OC2CCN(C(=O)CCOCCOc3cccc4c3C(=O)N(C3CCC(=O)NC3=O)C4=O)C2)CC1 (stereo not shown) [Compound D114] |
| – | 10 to 100 | 100 to 1000 | COc1cc(-c2cn(C)c(=O)c3cnccc23)cc(OC)c1CN1CC2(CCC2NC(=O)CCOCCOc2ccc3c(c2)C(=O)N(C2CCC(=O)NC2=O)C3=O)C1 (stereo not shown) [Compound D115] |
| 10 to 100 | < 10 | – | COc1cc(-c2cn(C)c(=O)c3cnccc23)cc(OC)c1CN1CC2(CCN(C(=O)CCOCCOc3ccc4c(c3)C(=O)N(C3CCC(=O)NC3=O)C4=O)CC2)C1 (stereo not shown) [Compound D118] |
| – | 10 to 100 | 10 to 100 | COc1cc(-c2cn(C)c(=O)c3cnccc23)cc(OC)c1CN1CCC2(CCN(C(=O)CCOCCOc3ccc4c(c3)C(=O)N(C3CCC(=O)NC3=O)C4=O)C2)C1 (stereo not shown) [Compound D121] |
| – | < 10 | < 10 | COc1cc(-c2cn(C)c(=O)c3cnccc23)cc(OC)c1CN1CCC2CCN(C(=O)CCOCCOc3ccc4c(c3)C(=O)N(C3CCC(=O)NC3=O)C4=O)CC21 (stereo not shown) [Compound D123] |
| 100 to 1000 | < 10 | – | COc1cc(-c2cn(C)c(=O)c3cnccc23)cc(OC)c1CN1CCC12CCN(C(=O)CCOCCOc1ccc3c(c1)C(=O)N(C1CCC(=O)NC1=O)C3=O)C2 (stereo not shown) [Compound D127] |
| – | < 10 | < 10 | COc1cc(-c2cn(C)c(=O)c3cnccc23)cc(OC)c1CN1CCC(C2CCN(C(=O)CCOCCOc3ccc4c(c3)C(=O)N(C3CCC(=O)NC3=O)C4=O)C2)CC1 (stereo not shown) [Compound D129] |
| 10 to 100 | < 10 | – | COc1cc(-c2cn(C)c(=O)c3cnccc23)cc(OC)c1CN(C)C1CC2CN(C(=O)CCOCCOc3cccc4c3C(=O)N(C3CCC(=O)NC3=O)C4=O)CC2C1 (stereo not shown) [Compound D160] |
| 10 to 100 | < 10 | – | COc1cc(-c2cn(C)c(=O)c3cnccc23)cc(OC)c1CN(C)C1CCC2CN(C(=O)CCOCCOc3cccc4c3C(=O)N(C3CCC(=O)NC3=O)C4=O)CC21 (stereo not shown) [Compound D161] |

Source: patent publication US11414416B1, “Compounds and uses thereof” (Foghorn Therapeutics Inc., priority 2019, dated 2022)
